A short description of series [1]: Metabolic stability in human liver microsomes assessed as parent compound remaining at 0.5 uM preincubated for 6 mins followed by NADPH addition measured after 10 mins by LC-MS/MS analysis. The series is classed as ADME, microsome. The following applies: read-out: Stability. For orientation: Microsomes from liver hold many membrane-bound enzymes, among them those of drug oxidation.

The nature of series [2]: Metabolic stability in rat liver microsomes assessed as parent compound remaining at 0.5 uM preincubated for 6 mins followed by NADPH addition measured after 10 mins by LC-MS/MS analysis. The series is classed as ADME, microsome. The following applies: read-out: Stability.
Series [3] in a line: Metabolic stability in mouse liver microsomes assessed as parent compound remaining at 0.5 uM preincubated for 6 mins followed by NADPH addition measured after 10 mins by LC-MS/MS analysis. In kind it is ADME, microsome. The following applies: read-out: Stability.
Series [4] is described as follows: Half life in human liver microsomes aat 0.5 uM preincubated for 6 mins followed by NADPH addition measured after 10 mins by LC-MS/MS analysis. The series is classed as ADME, microsome.
A short description of series [5]: Half life in rat liver microsomes aat 0.5 uM preincubated for 6 mins followed by NADPH addition measured after 10 mins by LC-MS/MS analysis. In kind it is ADME, microsome.
A short description of series [6]: Half life in mouse liver microsomes aat 0.5 uM preincubated for 6 mins followed by NADPH addition measured after 10 mins by LC-MS/MS analysis. The series is classed as ADME, microsome.
Series [7] in a line: AUC (0 to 24 hrs) in Balb/c mouse at 30 mg/kg, po. The series is classed as ADME, organism-based. The following applies: in vivo. Further details: dose 30 mg/kg, time < 24 hr, route oral.
The nature of series [8]: AUC (0 to 24 hrs) in Balb/c mouse at 100 mg/kg, po. In kind it is ADME, organism-based. Further details: dose 100 mg/kg, time < 24 hr, route oral. As to conditions: in vivo.
Series [9] is described as follows: Cmax in Balb/c mouse at 10 mg/kg, po. In kind it is ADME, organism-based. Further details: dose 10 mg/kg, route oral. The following applies: in vivo.
Series [10] is described as follows: AUC (0 to 24 hrs) in Balb/c mouse at 10 mg/kg, po. The following applies: in vivo. The series is classed as ADME, organism-based. More on the design: time < 24 hr, dose 10 mg/kg, route oral.

Each structure is given as a SMILES string.

Take `CC(=O)N1C[C@@H](C)N(c2cc(-c3cc(C(F)(F)F)c4c(N)ncnn34)ccc2C#N)C(=O)C1(C)C`: the remaining at 10 min, 0.5 µM in series [1] turned out to be 90%; in series [2], 43%; in series [3], 23%.
Taken in the same sequence, the figures for `CC(=O)N1CCN(c2cc(-c3cc(Cl)c4c(N)ncnn34)ccc2S(C)(=O)=O)C(=O)C1(C)C` were 100%, 100% and 84%.
With `CC(=O)N1CCN(c2cccc(-c3cc(Cl)c4c(N)ncnn34)c2)C(=O)C1(C)C`, the remaining at 10 min, 0.5 µM came out at 100% in [1], 57% in [2] and 17% in series [3]. Further, the figures for the half-life at 0.5 µM in series [4], in series [5] and in series [6] were greater than 120 min, 16 min and 4 min, respectively. In addition, the AUC(0-t) at 24 h in series [7] came out at 2.9 µM·h; in series [8] it was 17 µM·h.
In series [9], `CC(=O)N1CCN(c2cccc(-c3cc(-c4cnn(C5CC5)c4)c4c(N)ncnn34)c2)C(=O)C1(C)C` registered a Cmax of 470 nM. For the same molecule, the AUC(0-t) at 24 h in [10] was determined as 1.1 µM·h.
As for `CC(=O)N1CCN(c2cccc(-c3cc(Cl)c4c(N)ncnn34)c2C)C(=O)C1(C)C`, the remaining at 10 min, 0.5 µM in [1] was determined as 84%; in series [2], 19%; in series [3], 1%.
As to `CC(=O)N1CCN(c2cc(-c3cc(C(F)(F)F)c4c(N)ncnn34)ccc2C(F)(F)F)C(=O)C1(C)C`, the remaining at 10 min, 0.5 µM in series [1] came to 70%; in [2], 77%; in [3], 99%.
Regarding `CC(=O)N1C[C@@H](C)N(c2cc(-c3cc(Cl)c4c(N)ncnn34)ccc2C#N)C(=O)C1(C)C`, the remaining at 10 min, 0.5 µM in series [1] was 82%; in series [2], 59%; in [3], 22%.
On to `CC(=O)N1CCN(c2cc(C)cc(-c3cc(Cl)c4c(N)ncnn34)c2)C(=O)C1(C)C`, for which the remaining at 10 min, 0.5 µM was 92% in series [1], 100% in series [2] and 45% in series [3].
`CC(=O)N1CCN(c2cc(-c3cc(Cl)c4c(N)ncnn34)ccc2Cl)C(=O)C1(C)C`: the figures for the remaining at 10 min, 0.5 µM in series [1], in series [2] and in series [3] were 85%, 52% and 67%, respectively.
For the molecule `COc1ccc(-c2cc(C(F)(F)F)c3c(N)ncnn23)cc1N1CCN(C(C)=O)C(C)(C)C1=O`, the remaining at 10 min, 0.5 µM turned out to be 95% in series [1], 100% in series [2] and 100% in series [3].
Take `CC(=O)N1CCN(c2cc(-c3cc(C(F)(F)F)c4c(N)ncnn34)ccc2C(C)O)C(=O)C1(C)C` (racemic): the remaining at 10 min, 0.5 µM in [1], in series [2] and in [3] was 100% in each case.
In the case of `CC(=O)N1CCN(c2cc(-c3cc(Cl)c4c(N)ncnn34)ccc2C(C)O)C(=O)C1(C)C` (racemic), the remaining at 10 min, 0.5 µM in series [1], in [2] and in series [3] was 100% throughout.

Usually half-life stands for the time in which the quantity being followed falls by half. Lower therefore signals fast loss. In general, AUC(0-t) refers to exposure summed from dosing to a finite time, without extrapolation to infinity. High values mean high exposure, low ones low exposure. Usually Cmax stands for the maximum level reached in the sampled fluid or tissue.

The values are drawn from ChEMBL document CHEMBL4014340, “Identification of a Potent, Selective, and Efficacious Phosphatidylinositol 3-Kinase δ (PI3Kδ) Inhibitor for the Treatment of Immunological Disorders” (J Med Chem, 2017).
